Laboratory results published in patent US20240174637A1, “DEGRADERS OF GRK2 AND USES THEREOF” (Sonata Therapeutics, Inc., priority 2021, published 2024).

Columns and labels:
PAXF1657 KO Clone #4 = test: 7-day cellular proliferation assay (CellTiter-Glo), PAXF1657 KO Clone #4; format: cell-based; conditions: 168 h, 7-day, read-out: 7-day proliferation assay: IC50 GeoMean (uM) [Cell Line: PAXF1657 KO Clone #4]
Outline: (§1)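 PAXF1657 isogenic lines (GRK2-overexpressing vs empty vector; CRISPR GRK2 knockout vs non-targeting control clones) seeded 500 cells/well in RPMI1640/10% FBS and treated next day with 10-point dilutions, 30 μM-0.0002 μM final, 0.3% DMSO. Media with compound refreshed after 3 days; viability read by CellTiter-Glo luminescence at day 7.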

GRK2 [1] = target: T1, GRK2 (Homo sapiens, UniProt P25098); test: Second ADPGlo GRK2 Inhibition Assay (Example 3); format: biochemical; conditions: ADP-Glo, 20 μM ATP; read-out: Second ADPGlo Enzymatic GRK2 Assay: IC50 (nM) (Example 3)
T1 sequence (P25098 1-689): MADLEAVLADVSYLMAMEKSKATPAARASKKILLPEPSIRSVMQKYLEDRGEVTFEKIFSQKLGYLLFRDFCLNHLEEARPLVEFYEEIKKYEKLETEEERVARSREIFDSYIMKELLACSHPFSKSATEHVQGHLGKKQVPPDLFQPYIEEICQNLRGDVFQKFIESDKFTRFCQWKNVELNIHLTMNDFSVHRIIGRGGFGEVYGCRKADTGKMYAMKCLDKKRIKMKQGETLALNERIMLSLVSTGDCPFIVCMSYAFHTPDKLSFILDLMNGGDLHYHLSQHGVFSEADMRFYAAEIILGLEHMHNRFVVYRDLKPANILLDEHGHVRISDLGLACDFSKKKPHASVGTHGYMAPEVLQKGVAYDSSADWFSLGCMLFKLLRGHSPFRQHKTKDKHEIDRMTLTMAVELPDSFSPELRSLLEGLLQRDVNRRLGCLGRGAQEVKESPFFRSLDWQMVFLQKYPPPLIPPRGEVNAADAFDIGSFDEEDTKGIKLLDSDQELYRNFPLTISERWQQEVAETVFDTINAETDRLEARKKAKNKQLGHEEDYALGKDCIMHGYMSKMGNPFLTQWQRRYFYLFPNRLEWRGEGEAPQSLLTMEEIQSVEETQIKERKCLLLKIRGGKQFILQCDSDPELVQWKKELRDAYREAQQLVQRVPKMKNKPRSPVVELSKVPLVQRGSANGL
Method: Assay: GRK2 (2 nM) was incubated with ATP (20 μM) and GRKtide (1.2 mg/mL) in 11 μL of assay buffer (see above) for 180 min at room temperature. Compounds were dissolved in 100% DMSO, serially diluted 3.16-fold from 100 μM with 10 concentration points and transferred as 100× into assay plate (final compounds concentration in the reaction plate from 1 μM).
Materials: GRK2 was purchased from SignalChem (Cat #A14-10G, Lot #X645-3). Substrate GRKtide was from SignalChem (Cat #G46-58, Lot #R339-6). ADP-Glo Kinase Assay from Promega (Cat #V9102). Assay buffer consisted of 20 mM HEPES (pH7.5), 20 mM MgCl2, 0.01% Tween-20, 0.05 mM DDT. 384-well white plates were from Corning (Cat #4513).
HTS protocol: Add 5.5 μL of 2× substrate-enzyme mix into all columns except of 1-2 and 24 of reaction plate. Spin 15 seconds at 200 g. Transfer 1 ul of compounds from the plate with serial dilutions (384 well plate with 22 uL of compound in columns 3-22/DMSO solution 1-2,23-24) to Dilution plate (384 well plate with 49 uL of buffer with 2×40 μM ATP). After mixing transfer 5.5 ul from Dilution plate to Reaction plate (to 5.5 μL of 2× substrate-enzyme mix). Spin 15 seconds at 200 g and incubate for 180 min at room temperature with sealing. Add 3 μL ADP-Glo reagent to all the wells. Spin 15 seconds at 200 g and incubate for 40 min at room temperature. Add 6 μL Detection solution to all the wells. Incubate for 30 min at room temperature. Read plate using ClarioStar Plus (BMG).
Data Analysis: Data were analyzed in GraphPad Prism 5.0.2. Each HTS plate contains compounds in columns 3-22, controls (enzyme, no compound) in column 23, and blanks (no enzyme) in columns 2. HTS percent inhibition was calculated for each compound from the signal in luminescence units and the mean of the plate controls and the mean of the plate blanks using the following equation: % Inhibition=100*(1-(signal-blank mean)/(control mean-blank mean)).

GRK2 [2] = target: T1, GRK2; test: GRK2 Degradation Assay and Western Blot in PAXF1657 cells; format: cell-based; design: endogenous in cells; host or cells: PAXF1657; conditions: for inhibition at 1 µM: read-out: % GRK2 degradation at 1 uM in PAXF1657 EV (24 hrs); for inhibition at 0.3 µM: read-out: % GRK2 degradation at 0.3 uM in PAXF1657 EV (24 hrs); for inhibition at 3 µM: read-out: % GRK2 degradation at 3 uM in PAXF1657 EV (24 hrs)
Outline: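 PAXF1657 cells grown to 70% confluency, then treated with compounds at 0–10 μM for 6 to 24 h at 37 °C. Lysates in PBS with 1% NP40 run on SDS-PAGE. GRK2 protein detected by western blot with β-actin as loading reference, using ECL chemiluminescence.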

PAXF1657 EV = test: 7-day cellular proliferation assay (CellTiter-Glo), PAXF1657 EV; format: cell-based; conditions: 168 h, 7-day, read-out: 7-day proliferation assay: IC50 GeoMean (uM) [Cell Line: PAXF1657 EV]
Outline: as §1

Row | IC50 (GRK2 [1]) [nM] | inhibition at 1 µM (GRK2 [2]; PAXF1657 EV, 24 hrs) [%] | inhibition at 0.3 µM (GRK2 [2]; PAXF1657 EV, 24 hrs) [%] | inhibition at 3 µM (GRK2 [2]; PAXF1657 EV, 24 hrs) [%] | % GRK2 degradation at 0.03 uM in PAXF1657 EV (24 hrs) (GRK2 [2]; 0.03 uM, PAXF1657 EV, 24 hrs) [%] | % GRK2 degradation at 0.1 uM in PAXF1657 EV (24 hrs) (GRK2 [2]; 0.1 uM, PAXF1657 EV, 24 hrs) [%] | % GRK2 degradation at 10 uM in PAXF1657 EV (24 hrs) (GRK2 [2]; 10 uM, PAXF1657 EV, 24 hrs) [%] | GRK2 degradation, dose dependence (FIGS. 1A-1D) (GRK2 [2]; 24-hour treatment in PAXF1657 cells) | SMILES | IC50 (PAXF1657 KO Clone #4) [µM] | IC50 (PAXF1657 EV) [µM]
1 | < 100 | 11 | – | – | – | – | – | – | Cc1ncsc1-c1ccc(CNC(=O)[C@@H]2C[C@@H](O)CN2C(=O)[C@@H](NC(=O)CCCOc2cccc(CNC(=O)c3cccc(NCc4nnc(-c5ccncn5)n4C)c3)c2)C(C)(C)C)cc1 [Compound D97] | 1 to 10 | > 10
2 | < 100 | 25 | 2 | 39 | – | – | – | – | Cc1ncsc1-c1ccc(CNC(=O)[C@@H]2C[C@@H](O)CN2C(=O)[C@@H](NC(=O)CCCc2cn(CCCCCCCOc3cccc(CNC(=O)c4cccc(NCc5nnc(-c6ccncn6)n5C)c4)c3)nn2)C(C)(C)C)cc1 [Compound D83] | > 10 | 1 to 10
3 | < 100 | 31 | 19 | 6 | – | – | – | – | Cc1ncsc1-c1ccc(CNC(=O)[C@@H]2C[C@@H](O)CN2C(=O)[C@@H](NC(=O)CCCCCCOc2cccc(CNC(=O)c3cccc(NCc4nnc(-c5ccncn5)n4C)c3)c2)C(C)(C)C)cc1 [Compound D96] | > 10 | 1 to 10
4 | < 100 | – | – | – | – | – | – | – | Cc1ncsc1-c1ccc(CNC(=O)[C@@H]2C[C@@H](O)CN2C(=O)[C@@H](NC(=O)CCCCCOCCCCCOCCCCCCOc2cccc(CNC(=O)c3cccc(NCc4nnc(-c5ccncn5)n4C)c3)c2)C(C)(C)C)cc1 [Compound D98] | – | –
5 | < 100 | – | – | – | – | – | – | – | Cc1ncsc1-c1ccc(CNC(=O)[C@@H]2C[C@@H](O)CN2C(=O)[C@@H](NC(=O)CCCCCOCCOCCCCCCOc2cccc(CNC(=O)c3cccc(NCc4nnc(-c5ccncn5)n4C)c3)c2)C(C)(C)C)cc1 [Compound D76] | – | –
6 | < 100 | 56 | 35 | 75 | – | – | – | – | Cn1c(CNc2cccc(C(=O)NCc3cccc(OCCCCCCn4cc(CCCCC(=O)Nc5cccc6c5CN(C5CCC(=O)NC5=O)C6=O)nn4)c3)c2)nnc1-c1ccncn1 (stereo not drawn) [Compound D62] | > 10 | > 10
7 | < 100 | 64 | 36 | 67 | – | – | – | – | Cn1c(CNc2cccc(C(=O)NCc3ccc(OCCCCCCOCCOCCOCCCCCC(=O)Nc4cccc5c4CN(C4CCC(=O)NC4=O)C5=O)cc3)c2)nnc1-c1ccncn1 (stereo not drawn) [Compound D65] | > 10 | < 1
8 | < 100 | 67 | 48 | 76 | 15 | 28 | 76 | Dose dependent | Cn1c(CNc2cccc(C(=O)NCc3cccc(OCCCCCCOCCOCCOCCCCCC(=O)Nc4cccc5c4CN(C4CCC(=O)NC4=O)C5)c3)c2)nnc1-c1ccncn1 (stereo not drawn) [Compound D73] | > 10 | 1 to 10
9 | < 100 | 28 | -1 | 57 | – | – | – | – | Cc1ncsc1-c1ccc(CNC(=O)[C@@H]2C[C@@H](O)CN2C(=O)[C@@H](NC(=O)CCCCc2cn(CCCCCCCOc3cccc(CNC(=O)c4cccc(NCc5nnc(-c6ccncn6)n5C)c4)c3)nn2)C(C)(C)C)cc1 [Compound D82] | > 10 | < 1
10 | < 100 | – | – | – | – | – | – | – | Cn1c(CNc2cccc(C(=O)NCc3cccc(OCCCCCCOCCOCCCCCC(=O)Nc4cccc5c4CN(C4CCC(=O)NC4=O)C5=O)c3)c2)nnc1-c1ccncn1 (stereo not drawn) [Compound D52] | – | –
11 | > 1000 | – | – | – | – | – | – | – | COc1cc(OCCNC(=O)CCOCCOCCOCCNC(=O)Nc2cccc3c2CN(C2CCC(=O)NC2=O)C3=O)ccc1CNC(=O)c1cccc(NCc2nnc(-c3ccncn3)n2C)c1 (stereo not drawn) [Compound D68] | – | –
12 | < 100 | 34 | 17 | 30 | – | – | – | – | Cc1ncsc1-c1ccc(CNC(=O)[C@@H]2C[C@@H](O)CN2C(=O)[C@@H](NC(=O)COCCCOCCCCCOc2cccc(CNC(=O)c3cccc(NCc4nnc(-c5ccncn5)n4C)c3)c2)C(C)(C)C)cc1 [Compound D85, (2S,4R)-1-((S)-3,3-dimethyl-2-(2-(3-((5-(3-((3-(((4-methyl-5-(pyrimidin-4-yl)-4H-1,2,4-triazol-3-yl)methyl)amino)benzamido)methyl)phenoxy)pentyl)oxy)propoxy)acetamido)butanoyl)-4-hydroxy-N-(4-(4-methylthiazol-5-yl)benzyl)pyrrolidine-2-carboxamide] | > 10 | 1 to 10
13 | < 100 | – | – | – | – | – | – | – | Cn1c(CNc2cccc(C(=O)NCc3cccc(OCCCC(=O)Nc4cccc5c4CN(C4CCC(=O)NC4=O)C5=O)c3)c2)nnc1-c1ccncn1 (stereo not drawn) [Compound D70] | – | –
14 | < 100 | 13 | -3 | 69 | – | – | – | – | Cn1c(CNc2cccc(C(=O)NCc3cccc(OCCCCCCCn4cc(CCCCC(=O)Nc5cccc6c5CN(C5CCC(=O)NC5=O)C6=O)nn4)c3)c2)nnc1-c1ccncn1 (stereo not drawn) [Compound D60] | > 10 | > 10
15 | < 100 | 52 | 25 | 64 | – | – | – | – | Cn1c(CNc2cccc(C(=O)NCc3cccc(OCCCCCCOCCOCCOCCCC(=O)Nc4cccc5c4CN(C4CCC(=O)NC4=O)C5=O)c3)c2)nnc1-c1ccncn1 (stereo not drawn) [Compound D56] | > 10 | 1 to 10
16 | < 100 | -1 | -4 | -7 | – | – | – | – | Cc1ncsc1-c1ccc(CNC(=O)[C@@H]2C[C@@H](O)CN2C(=O)[C@@H](NC(=O)CCCOCCOCCOCCCCCCOc2cccc(CNC(=O)c3cccc(NCc4nnc(-c5ccncn5)n4C)c3)c2)C(C)(C)C)cc1 [Compound D77] | > 10 | < 1
17 | < 100 | 44 | – | 13 | – | – | – | – | Cc1ncsc1-c1ccc(CNC(=O)[C@@H]2C[C@@H](O)CN2C(=O)[C@@H](NC(=O)CCCCCOCCOCCOCCCCCCOc2cccc(CNC(=O)c3cccc(NCc4nnc(-c5ccncn5)n4C)c3)c2)C(C)(C)C)cc1 [Compound D99] | 1 to 10 | < 1
